# From patent US20240335499A1, “PEPTIDE HAVING ANTIDIABETIC ACTIVITY AND USE THEREOF” (MEDI&GENE INC., priority 2021, published 2024)
# Key:
# [1] = tested on: muscle RING Finger-1 (Murf-1); test: Murf-1 gene expression in muscle tissue of db/db mice; assay type: in vivo, db/db diabetic mouse model; settings: db/db mice muscle tissue RNA, 2.5 mg/kg intraperitoneally, 8 weeks
# Method: (§1) It was confirmed whether the antidiabetic peptide relieves diabetes mellitus induced by leptin receptor defects. As an animal model, 5-week-old C57BLKS/J-db/db male mice were provided by Central Lab. Animal Inc., fed a normal diet, and used after an adaptation period of one week. The breeding environment was maintained at 18 to 24° C. and a humidity of 50 to 60%, and the animals were given free access to normal feed and water during both the adaptation period and the experimental period. Mice that completed the adaptation period were divided into a control (intraperitoneal injection) and a peptide administration group. PBS and antidiabetic peptides (Nos. 7 and 8; 2.5 mg/kg) were intraperitoneally administered to the control and peptide administration groups, respectively, for a total of 8 weeks.
# (§2) Various tissue examinations were performed on a db/db diabetic mouse model to confirm the efficacy of relieving diabetic complications. First, in order to confirm muscle loss-related effects, RNA was isolated from muscle tissue and the expression levels of muscle loss-related genes were confirmed. […]
# [2] = tested on: adipocyte protein 2 (AP2); test: AP2 gene expression in muscle tissue of db/db mice; assay type: in vivo, db/db diabetic mouse model; settings: db/db mice muscle tissue RNA, 2.5 mg/kg intraperitoneally, 8 weeks
# Method: as §1, §2
# [3] = tested on: peroxisome proliferator-activated receptor α (PPARα); test: PPARα gene expression in muscle tissue of db/db mice; assay type: in vivo, db/db diabetic mouse model; settings: db/db mice muscle tissue RNA, 2.5 mg/kg intraperitoneally, 8 weeks
# Method: as §1, §2
# obese mouse model = test: Glucose tolerance in high-fat-diet obese mouse model; assay type: in vivo, C57BL/6N male mice; settings: obese mice, 2.5 mg/kg
# Method: 5-week-old C57BL/6N male mice were obtained from Orient Bio, fed a normal diet, and used after an adaptation period of one week. The breeding environment was maintained at 18 to 24° C. and a humidity of 50 to 60%, and the animals were given free access to feed and water during both the adaptation period and the experimental period. After the one-week adaptation period, the mice were induced to become obese through a high-fat diet to induce impaired glucose tolerance.
# The mice in which obesity was induced were divided into a control and an experimental group. All mice were fasted for 12 hours, and PBS and a peptide (No. 1, 7, or 8; 2.5 mg/kg) were administered to the control and the experimental group, respectively. One hour later, a 20% glucose solution was intraperitoneally injected, and blood collected at each time period was analyzed using a blood glucose analyzer.
# [4] = tested on: CCAAT enhancer binding protein α (C/EBPα); test: C/EBPα gene expression in muscle tissue of db/db mice; assay type: in vivo, db/db diabetic mouse model; settings: db/db mice muscle tissue RNA, 2.5 mg/kg intraperitoneally, 8 weeks
# Method: as §1, §2
# S6 (mTOR marker) = test: S6 phosphorylation in L6 skeletal muscle cells (western blotting); assay type: cell-based; settings: 100 nM, 1 hour; for phosphorylation of S6 (mTOR marker): FIG. 8
# Method: (§3) L6 skeletal muscle cells were cultured in a 6-well plate and then starved with 0.5% FBS. Thereafter, the cells were treated with an antidiabetic peptide at a concentration of 100 nM for 1 hour, proteins were collected, and then western blotting was performed.
# FoxO1 = FoxO1 phosphorylation and expression in L6 skeletal muscle cells (western blotting); assay type: cell-based; settings: 100 nM, 1 hour
# Method: as §3
# [5] = tested on: glucose transporter type 4 (GLUT4); test: GLUT4 translocation to the cell membrane in C2C12 skeletal muscle cells; assay type: cell-based; settings: 100 nM, 1 hour, FIG. 3: Nos. 1 to 8 and insulin
# Method: Similarly, in order to further verify the function of promoting glucose metabolism by antidiabetic peptide treatment, the degree of expression of a glucose transporter type 4 (GLUT4) glucose receptor, which plays an important role in glucose uptake, in the cell membrane was measured. It is known that GLUT4 moves from the cytoplasm to the cell membrane to promote sugar metabolism, and thus the expression level thereof increases. To confirm this, C2C12 skeletal muscle cells were starved with 0.5% FBS and then treated with the peptide and insulin, which is a positive control, at a concentration of 100 nM for 1 hour. Cells were fixed with 4% paraformaldehyde, incubated with a GLUT4-specific antibody at 37° C. for 30 minutes, reacted with an o-phenylenediamine (OPD) solution, and absorbance was measured and compared with that of the control.
substance,measurement,setting,value
AGSIREAGGAFGKREQAEEERYFR (listed as Homo sapiens) [No. 7],Murf-1 gene expression change,[1],−90.1%
same,AP2 gene expression change,[2],−52.5%
same,PPARα gene expression change,[3],+94.1%
same,change in blood sugar over time (GLUAUC) reduced compared to the control,obese mouse model; after baseline correction,31.1%
same,C/EBPα gene expression change,[4],−18.6%
same,phosphorylation of S6 (mTOR marker),S6 (mTOR marker),increased
AQSREQLAALKK (listed as Homo sapiens) [No. 5],"phosphorylation of S6 protein, increase",S6 (mTOR marker),494%
EQAEEER (listed as Homo sapiens) [No. 2],"phosphorylation of S6 protein, increase",S6 (mTOR marker),365%
EQAEEERYFR (listed as Homo sapiens) [No. 4],"phosphorylation of S6 protein, increase",S6 (mTOR marker),224%
REAGGAFGKR (listed as Homo sapiens) [No. 3],phosphorylation of S6 (mTOR marker),S6 (mTOR marker),increased
VDRGAGSIREAGGAFGKREQAEEERYFR (listed as Homo sapiens) [No. 8],Murf-1 gene expression change,[1],−36.0%
same,AP2 gene expression change,[2],−54.7%
same,PPARα gene expression change,[3],+12.9%
same,"blood sugar metabolism after glucose injection, baseline corrected, compared to the control","obese mouse model; fasted 12 hours, 20% glucose intraperitoneally one hour later, FIG. 4 left",significantly improving
same,C/EBPα gene expression change,[4],−45.5%
same,"phosphorylation of S6 protein, increase",S6 (mTOR marker),414%
YFR (listed as Homo sapiens) [No. 1],expression level of total FoxO1,FoxO1,decreased
same,phosphorylation of FoxO1,FoxO1; FIG. 9: Nos. 1 to 8,increased
same,"phosphorylation of S6 protein, increase",S6 (mTOR marker),188%
YFRAQSREQLAALKKHH (listed as Homo sapiens) [No. 6],phosphorylation of S6 (mTOR marker),S6 (mTOR marker),increased
insulin,GLUT4 translocation compared to the control,[5],significant GLUT4 translocation
